Measured values: patent US12582784B2, “Dry powder inhalation system” (MannKind Corporation, priority 2008, dated 2026)

How the values were obtained:
[1] = Baseline-corrected glucose infusion rate (GIR) evaluation under hyperinsulinemic-euglycemic clamp; assay type: in vivo, human (subjects with type 1 diabetes mellitus); conditions: 10 IU sc RAA
Experimental: A phase I, open-label, single-dose, repeat administration study in subjects with type 1 diabetes (T1DM) was conducted to assess the pharmacokinetic profile or PK of 30 U of insulin-FDKP dosed as a single 30 U cartridge and compared to two 15 U cartridges administered with the present inhalation system. A 10 U subcutaneous injection of the rapid acting insulin analogue (RAA, HUMALOG® (Eli Lilly and Company, Indianapolis, IN)) was also tested. Subjects (age: 19-61 yrs) were randomized to 1 of 6 sequences. Fasted subjects received insulin-FDKP or RAA 4 to 6 hrs after initiating a hyperinsulinemic-euglycemic clamp. Randomization determined the order of insulin-FDKP dosing (first 2 treatment (tx) visits), and the location of the RAA injection (abdomen, arm or leg; 3rd tx visit). After dosing blood samples were taken and analyzed for insulin, insulin lispro and fumaryl diketopiperazine (FDKP (insulin-FDKP tx only)). When studying insulin-FDKP, the basal insulin infusion was performed with HUMALOG®, and when studying HUMALOG®, regular human insulin was used. The analytical methodologies enabled the independent measurement of each insulin tested.
This study also evaluated the effects of the dosages administered and the glucose infusion rate (GIR) requirements of the patients in the study. FIG. 19 illustrates the results of the GIR evaluation. […]

[2] = set-up: species or system human (subjects with type 1 diabetes mellitus); conditions: human, in vivo, sc
Experimental: The study was conducted in subjects with type 1 diabetes mellitus. This study was conducted to determine if a formulation for pulmonary delivery comprising insulin and a diketopiperazine in the formulation, 1) could be delivered consistently using different dosage strengths and 2) if linearity of dosing could be achieved with proportional doses, given that interchangeability of dosage strengths can be important for patient safety. […] Therefore, an important goal in the development of the pulmonary delivery system with a formulation comprising insulin and FDKP (insulin-FDKP) was to achieve dose linearity across the therapeutic dose range.
In the study, comparisons of insulin exposure following inhalation of two 15 U cartridges of an insulin inhalation powder to one 30 U cartridge of insulin inhalation powder were made. In addition, insulin bioavailability from a 30 U cartridge of insulin-FDKP inhalation powder was calculated, compared to a 10-IU subcutaneous (sc) injection of insulin lispro (rapid acting analogue [RAA]).
A phase I, open-label, single-dose, repeat administration study in subjects with type 1 diabetes (T1DM) was conducted to assess the pharmacokinetic profile or PK of 30 U of insulin-FDKP dosed as a single 30 U cartridge and compared to two 15 U cartridges administered with the present inhalation system. […]

Substance: insulin lispro [Humalog]
- time after administration at which GIR peaked [1]: approximately 150 minutes
- time at which GIR returned toward baseline [1]: ~300 min
- Insulin PK parameters tmax [2]: 1 h
